CC[C@H]1OC(=O)[C@H](C)[C@@H](O[C@H]2C[C@@](C)(OC)[C@@H](O)[C@H](C)O2)[C@H](C)[C@@H](O[C@@H]2O[C@H](C)C[C@H](N(C)C)[C@H]2O)[C@](C)(O)C[C@@H](C)C(=O)[C@H](C)[C@@H](O)[C@]1(C)O.O.O
solubility (mole fraction)
Settings | 293.2 K | 298 K | 303.15 K | 308 K | 313.1 K | 318 K | 323 K
in acetone | 0.00914 | 0.0131 | 0.0217 | 0.0293 | 0.0433 | 0.0542 | 0.0804
in chloroform | 0.00391 | 0.0054 | 0.00875 | 0.0134 | 0.0216 | 0.0313 | 0.0473
in ethanol | 0.0148 | 0.0192 | 0.0254 | 0.0338 | 0.046 | 0.062 | 0.081
in isopropanol | 0.003 | 0.00401 | 0.00556 | 0.00754 | 0.00995 | 0.0143 | 0.0194
in methanol | 0.0116 | 0.0143 | 0.0179 | 0.0215 | 0.0253 | 0.0305 | 0.0373
in water | 5.4e-05 | 4.7e-05 | 4.2e-05 | 4e-05 | 3.8e-05 | 3.5e-05 | 3.4e-05

From BigSolDB 2.1
